The values below come from patent publication US12649750B2, “Macrocyclic compounds, compositions, and methods of using thereof” (Sionna Therapeutics Inc., priority 2022, dated 2026).

One experiment concerns the target T1, NBD1 (Homo sapiens, UniProt P13569).
T1 construct: Purified recombinant NBD1 was produced using previously described methods; made in house
As to the kind of experiment: Aggregation analysis using differential static light scattering (DSLS), thermal stability of NBD1 (ΔTagg). The following applies: ΔTagg versus DMSO control, NBD1 0.2 mg/ml. The class given is binding. In a few lines: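 Stabilisation is measured as the shift in aggregation onset of recombinant NBD1 (0.2 mg/ml, 2 mM ATP, 5 mM MgCl2, pH7.6) exposed to compound. Images are taken every 0.5° C. while heating at 1° C. per minute, and the inflection-point Tagg is corrected by the DMSO mean.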

A further experiment addresses T2, CFTR (Homo sapiens, UniProt P13569, DEL508-508).
T2 construct: Primary human bronchial epithelial cells from a ΔF508 homozygous CF donor; host or cells: primary human bronchial epithelial cells (CF-HBE), ΔF508 homozygous donor
As to the kind of experiment: TECC24 AUC fold over DMSO @10 μM, CFTR-mediated transepithelial chloride transport in CF-HBE cells. Particulars: test agent AUC divided by DMSO vehicle AUC, primary CF-HBE cells, ΔF508 homozygous donor, 48 hours incubation. The class given is cell-based. An outline of the steps:
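ΔF508-homozygous primary bronchial epithelial cells incubated 48 h at 36.5° C with compound (10 μM) in IL-13-containing medium, then TECC24 current-clamp recording in pH 7.4 Hepes saline with benzamil 10 μM, forskolin 10 μM, then CFTR inhibitor-172 20 μM. Equivalent Cl− current AUC between forskolin and inhibitor, expressed as fold over DMSO.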

Structures are written as SMILES.

T2 sequence (P13569 with tags, fused parts or gaps DEL508-508): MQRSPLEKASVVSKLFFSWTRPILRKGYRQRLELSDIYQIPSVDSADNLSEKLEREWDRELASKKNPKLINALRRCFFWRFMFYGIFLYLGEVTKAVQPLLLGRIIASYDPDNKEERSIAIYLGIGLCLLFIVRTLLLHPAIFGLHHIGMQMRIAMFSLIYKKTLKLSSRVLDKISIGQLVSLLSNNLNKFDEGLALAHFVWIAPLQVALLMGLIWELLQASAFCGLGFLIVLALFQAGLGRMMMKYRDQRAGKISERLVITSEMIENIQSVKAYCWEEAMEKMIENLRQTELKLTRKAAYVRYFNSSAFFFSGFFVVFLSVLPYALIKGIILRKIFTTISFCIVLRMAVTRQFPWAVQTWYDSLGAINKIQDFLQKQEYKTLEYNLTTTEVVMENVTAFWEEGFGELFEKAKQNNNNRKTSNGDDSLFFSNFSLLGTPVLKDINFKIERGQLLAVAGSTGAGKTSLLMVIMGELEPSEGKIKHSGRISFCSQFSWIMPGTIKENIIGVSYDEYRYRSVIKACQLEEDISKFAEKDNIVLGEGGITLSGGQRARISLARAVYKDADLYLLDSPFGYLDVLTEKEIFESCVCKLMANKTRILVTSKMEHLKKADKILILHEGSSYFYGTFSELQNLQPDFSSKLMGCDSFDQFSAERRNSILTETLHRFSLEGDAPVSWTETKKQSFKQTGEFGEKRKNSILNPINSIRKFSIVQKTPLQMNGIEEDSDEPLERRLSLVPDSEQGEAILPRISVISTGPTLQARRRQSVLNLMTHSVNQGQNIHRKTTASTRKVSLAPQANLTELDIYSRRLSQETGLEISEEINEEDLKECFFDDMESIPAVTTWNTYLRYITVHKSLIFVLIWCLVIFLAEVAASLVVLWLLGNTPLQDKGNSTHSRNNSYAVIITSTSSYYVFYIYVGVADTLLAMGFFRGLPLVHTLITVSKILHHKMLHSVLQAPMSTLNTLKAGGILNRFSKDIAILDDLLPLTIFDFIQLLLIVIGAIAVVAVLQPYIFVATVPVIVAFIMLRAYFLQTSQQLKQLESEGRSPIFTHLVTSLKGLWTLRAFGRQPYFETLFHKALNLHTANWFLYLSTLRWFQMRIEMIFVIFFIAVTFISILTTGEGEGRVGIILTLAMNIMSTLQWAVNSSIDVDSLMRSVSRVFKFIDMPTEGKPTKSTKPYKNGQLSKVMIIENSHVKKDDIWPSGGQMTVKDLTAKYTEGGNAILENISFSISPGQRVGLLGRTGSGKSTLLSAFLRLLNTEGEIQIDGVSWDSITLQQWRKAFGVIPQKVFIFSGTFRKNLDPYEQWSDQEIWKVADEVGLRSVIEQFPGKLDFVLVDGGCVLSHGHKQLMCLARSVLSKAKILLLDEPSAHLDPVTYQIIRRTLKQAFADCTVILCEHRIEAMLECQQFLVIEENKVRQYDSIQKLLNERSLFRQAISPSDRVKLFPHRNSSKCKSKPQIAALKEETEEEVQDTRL
T1 sequence (P13569 423-646 limits assumed): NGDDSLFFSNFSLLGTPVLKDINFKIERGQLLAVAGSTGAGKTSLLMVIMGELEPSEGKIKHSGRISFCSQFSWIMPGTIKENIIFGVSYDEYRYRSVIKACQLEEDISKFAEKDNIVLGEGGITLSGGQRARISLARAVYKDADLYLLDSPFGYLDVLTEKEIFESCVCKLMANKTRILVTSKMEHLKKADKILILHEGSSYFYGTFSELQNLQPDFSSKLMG

With `C[C@@H](Cc1cccc(C2(C)CCCC(C)(C)CS(=O)(=O)CCc3c(c(F)cc4[nH]ccc34)Oc3ccc(F)c(c3)-c3nc2nn3C)c1)C(=O)OCOC(=O)C(C)(C)C` (single isomer, unassigned) [Compound 145], the “DSLS 3D (100 μM ΔT)” value on NBD1 is “A (an ΔTagg value less than or equal to 5 °C is marked “A”)”. Moreover, the “TECC (AUC, 10 μM)” value at CFTR is “C (a value between 20 and 80 is marked “C”)”.

Turning to `C[C@@H](Cc1cccc(C2(C)CCCC(C)(C)CS(=O)(=O)CCc3c(c(F)cc4[nH]ccc34)Oc3ccc(F)c(c3)-c3nc2nn3C)c1)C(=O)NS(C)(=O)=O` (single isomer, unassigned) [Compound 146], the “DSLS 3D (100 μM ΔT)” value on NBD1 was “C (a value greater than 10 °C and less than or equal to 25 °C is marked “C”)”. For the same molecule, the “TECC (AUC, 10 μM)” value at CFTR is “A (a TECC value less than 12 is marked “A”)”.

Turning to `CONC(=O)[C@@H](C)Cc1cccc(C2(C)CCCC(C)(C)CS(=O)(=O)CCc3c(c(F)cc4[nH]ccc34)Oc3ccc(F)c(c3)-c3nc2nn3C)c1` (single isomer, unassigned) [Compound 147], on NBD1, the “DSLS 3D (100 μM ΔT)” value is “C (a value greater than 10 °C and less than or equal to 25 °C is marked “C”)”. Also, on CFTR, the “TECC (AUC, 10 μM)” value is “A (a TECC value less than 12 is marked “A”)”.

For the molecule `C[C@@H](Cc1cccc(C2(C)CCCC(C)(C)CS(=O)(=O)CCc3c(c(F)cc4[nH]ccc34)Oc3ccc(F)c(c3)-c3nc2nn3C)c1)C(=O)NOCC(O)CO` (single isomer, unassigned) [Compound 148], the “DSLS 3D (100 μM ΔT)” value on NBD1 was “C (a value greater than 10 °C and less than or equal to 25 °C is marked “C”)”. The “TECC (AUC, 10 μM)” value at CFTR is “C (a value between 20 and 80 is marked “C”)”.

As to `CNC(=O)[C@@H](C)Cc1cccc(C2(C)CCCC(C)(C)CS(=O)(=O)CCc3c(c(F)cc4[nH]ccc34)Oc3ccc(F)c(c3)-c3nc2nn3C)c1` (single isomer, unassigned) [Compound 149], the “DSLS 3D (100 μM ΔT)” value on NBD1 was “C (a value greater than 10 °C and less than or equal to 25 °C is marked “C”)”. Further, the “TECC (AUC, 10 μM)” value on CFTR is “A (a TECC value less than 12 is marked “A”)”.

For `C[C@@H](Cc1cccc(C2(C)CCCC(C)(C)CS(=O)(=O)CCc3c(c(F)cc4[nH]ccc34)Oc3ccc(F)c(c3)-c3nc2nn3C)c1)C(=O)NS(=O)(=O)C1CC1` (single isomer, unassigned) [Compound 150], the “DSLS 3D (100 μM ΔT)” value at NBD1 was “C (a value greater than 10 °C and less than or equal to 25 °C is marked “C”)”. At CFTR, the “TECC (AUC, 10 μM)” value is given as “A (a TECC value less than 12 is marked “A”)”.

Take `COCC(Cc1cccc(C2(C)CCCC(C)(C)CS(=O)(=O)CCc3c(c(F)cc4[nH]ccc34)Oc3ccc(F)c(c3)-c3nc2nn3C)c1)C(=O)O` (single isomer, unassigned) [Compound 153A, 2-[[3-(22,28-difluoro-3,6,10,10-tetramethyl-12,12-dioxo-24-oxa-12λ6-thia-3,4,19,30-tetrazapentacyclo[23.3.1.12,5.015,23.016,20]triaconta-1(29),2(30),4,15,17,20,22,25,27-nonaen-6-yl)phenyl]methyl]-3-methoxy-propanoic Acid]: the “DSLS 3D (100 μM ΔT)” value at NBD1 was “C (a value greater than 10 °C and less than or equal to 25 °C is marked “C”)”. Besides, on CFTR, the “TECC (AUC, 10 μM)” value is “C (a value between 20 and 80 is marked “C”)”.

For `COCC(Cc1cccc(C2(C)CCCC(C)(C)CS(=O)(=O)CCc3c(c(F)cc4[nH]ccc34)Oc3ccc(F)c(c3)-c3nc2nn3C)c1)C(=O)O` (single isomer, unassigned) [Compound 153B, 2-[[3-(22,28-difluoro-3,6,10,10-tetramethyl-12,12-dioxo-24-oxa-12λ6-thia-3,4,19,30-tetrazapentacyclo[23.3.1.12,5.015,23.016,20]triaconta-1(29),2(30),4,15,17,20,22,25,27-nonaen-6-yl)phenyl]methyl]-3-methoxy-propanoic Acid], at NBD1, the “DSLS 3D (100 μM ΔT)” value was “A (an ΔTagg value less than or equal to 5 °C is marked “A”)”. Moreover, the “TECC (AUC, 10 μM)” value at CFTR is “C (a value between 20 and 80 is marked “C”)”.

Take `COCC(Cc1cccc(C2(C)CCCC(C)(C)CS(=O)(=O)CCc3c(c(F)cc4[nH]ccc34)Oc3ccc(F)c(c3)-c3nc2nn3C)c1)C(=O)O` (single isomer, unassigned) [Compound 153C, 2-[[3-(22,28-difluoro-3,6,10,10-tetramethyl-12,12-dioxo-24-oxa-12λ6-thia-3,4,19,30-tetrazapentacyclo[23.3.1.12,5.015,23.016,20]triaconta-1(29),2(30),4,15,17,20,22,25,27-nonaen-6-yl)phenyl]methyl]-3-methoxy-propanoic Acid]: the “DSLS 3D (100 μM ΔT)” value at NBD1 was “A (an ΔTagg value less than or equal to 5 °C is marked “A”)”. The “TECC (AUC, 10 μM)” value on CFTR is reported as “A (a TECC value less than 12 is marked “A”)”.

As for `C[C@H](Cc1cccc(C2(C)CCCC(C)(C)CS(=O)(=O)CCc3c(c(F)cc4[nH]ccc34)Oc3ccc(F)c(c3)-c3nc2c[nH]3)c1)C(=O)O` (single isomer, unassigned) [Compound 157A], on NBD1, the “DSLS 3D (100 μM ΔT)” value was “A (an ΔTagg value less than or equal to 5 °C is marked “A”)”. Further, the “TECC (AUC, 10 μM)” value at CFTR is on record as “A (a TECC value less than 12 is marked “A”)”.

With `C[C@H](Cc1cccc(C2(C)CCCC(C)(C)CS(=O)(=O)CCc3c(c(F)cc4[nH]ccc34)Oc3ccc(F)c(c3)-c3nc2c[nH]3)c1)C(=O)O` (single isomer, unassigned) [Compound 157B], the “DSLS 3D (100 μM ΔT)” value on NBD1 was “C (a value greater than 10 °C and less than or equal to 25 °C is marked “C”)”. The “TECC (AUC, 10 μM)” value on CFTR was “A (a TECC value less than 12 is marked “A”)”.

Turning to `C[C@@H](Cc1cccc(C2(C)CCCC(C)(C)CS(=O)(=O)CCc3c(c(F)cc4[nH]ccc34)Oc3ccc(F)c(c3)-c3nc2nn3C)c1)C(N)=O` (single isomer, unassigned) [Compound 158], the “DSLS 3D (100 μM ΔT)” value on NBD1 is “C (a value greater than 10 °C and less than or equal to 25 °C is marked “C”)”. For the same molecule, the “TECC (AUC, 10 μM)” value at CFTR was “A (a TECC value less than 12 is marked “A”)”.

With `COCCOCCOCCOC(=O)[C@@H](C)Cc1cccc(C2(C)CCCC(C)(C)CS(=O)(=O)CCc3c(c(F)cc4[nH]ccc34)Oc3ccc(F)c(c3)-c3nc2nn3C)c1` (single isomer, unassigned) [Compound 165], the “DSLS 3D (100 μM ΔT)” value on NBD1 was “B (a value above 5 °C and less than or equal to 10 °C is marked “B”)”. The “TECC (AUC, 10 μM)” value at CFTR is “C (a value between 20 and 80 is marked “C”)”.

For `C/C(=C\c1cccc(C2(C)CCCC(C)(C)CS(=O)(=O)CCc3c(c(F)cc4[nH]ccc34)Cc3ccc(F)c(c3)-c3nc2nn3C)c1)C(=O)O` (single isomer, unassigned) [Compound 166A, (E)-3-[3-(22,28-difluoro-3,6,10,10-tetramethyl-12,12-dioxo-12λ6-thia-3,4,19,30-tetrazapentacyclo-[23.3.1.12,5.015,23.016,20]triaconta-1(29),2(30),4,15,17,20,22,25,27-nonaen-6-yl)phenyl]-2-methyl-prop-2-enoic Acid], at NBD1, the “DSLS 3D (100 μM ΔT)” value is “C (a value greater than 10 °C and less than or equal to 25 °C is marked “C”)”. The “TECC (AUC, 10 μM)” value at CFTR is listed as “B (a value between 12-20 is marked “B”)”.

For `C/C(=C\c1cccc(C2(C)CCCC(C)(C)CS(=O)(=O)CCc3c(c(F)cc4[nH]ccc34)Cc3ccc(F)c(c3)-c3nc2nn3C)c1)C(=O)O` (single isomer, unassigned) [Compound 166B, (E)-3-[3-(22,28-difluoro-3,6,10,10-tetramethyl-12,12-dioxo-12λ6-thia-3,4,19,30-tetrazapentacyclo-[23.3.1.12,5.015,23.016,20]triaconta-1(29),2(30),4,15,17,20,22,25,27-nonaen-6-yl)phenyl]-2-methyl-prop-2-enoic Acid], the “DSLS 3D (100 μM ΔT)” value on NBD1 is “A (an ΔTagg value less than or equal to 5 °C is marked “A”)”. The “TECC (AUC, 10 μM)” value at CFTR is “A (a TECC value less than 12 is marked “A”)”.

In the case of `C[C@H](Cc1cccc(C2(C)CCCC(C)(C)CS(=O)(=O)CCc3c(c(F)cc4[nH]ccc34)Cc3ccc(F)c(c3)-c3nc2nn3C)c1)C(=O)O` (single isomer, unassigned) [Compound 169A], the “DSLS 3D (100 μM ΔT)” value at NBD1 is “C (a value greater than 10 °C and less than or equal to 25 °C is marked “C”)”. Moreover, the “TECC (AUC, 10 μM)” value on CFTR is reported as “A (a TECC value less than 12 is marked “A”)”.

For the molecule `C[C@H](Cc1cccc(C2(C)CCCC(C)(C)CS(=O)(=O)CCc3c(c(F)cc4[nH]ccc34)Cc3ccc(F)c(c3)-c3nc2nn3C)c1)C(=O)O` (single isomer, unassigned) [Compound 169B], the “DSLS 3D (100 μM ΔT)” value at NBD1 is “A (an ΔTagg value less than or equal to 5 °C is marked “A”)”. In addition, the “TECC (AUC, 10 μM)” value at CFTR was “A (a TECC value less than 12 is marked “A”)”.

Regarding `CC1(C)CCCC(C)(c2cccc(CC3(C(=O)O)CC3)c2)c2c[nH]c(n2)-c2cc(ccc2F)Oc2c(F)cc3[nH]ccc3c2CCS(=O)(=O)C1` (single isomer, unassigned) [Compound 171A, 1-[[3-(22,28-difluoro-6,10,10-trimethyl-12,12-dioxo-24-oxa-12λ6-thia-3,19,30-triazapentacyclo[23.3.1.12,5.015,23.016,20]triaconta-1(29),2(30),4,15,17,20,22,25,27-nonaen-6-yl)phenyl]methyl]cyclopropanecarboxylic Acid], on NBD1, the “DSLS 3D (100 μM ΔT)” value is “A (an ΔTagg value less than or equal to 5 °C is marked “A”)”. Besides, on CFTR, the “TECC (AUC, 10 μM)” value is reported as “A (a TECC value less than 12 is marked “A”)”.
